# Experimental data: the Kinase Knowledgebase extract (Sharma et al. 2016)
# Biological target: CDK2 (human) (UniProt P24941)
# Experiment: Enzyme Assay
row,IC50 [µM],Compound
1,< 1,COc1ccc(F)cc1C(=O)Nc1c[nH]nc1-c1nc(C(F)(F)F)c(C)[nH]1
2,< 1,Cc1[nH]c(-c2n[nH]cc2NC(=O)C(C#N)C2CC2)nc1C(F)(F)F (stereo not drawn)
3,< 1,Cc1[nH]c(-c2n[nH]cc2NC(=O)c2onc3ccccc23)nc1C(F)(F)F
4,< 1,CCOc1ccccc1C(=O)Nc1c[nH]nc1-c1nc(C(F)(F)F)c(C)[nH]1
5,< 1,Cc1[nH]c(-c2n[nH]cc2NC(=O)c2c(F)cc(F)cc2F)nc1C(F)(F)F
6,< 1,Cc1[nH]c(-c2n[nH]cc2NC(=O)c2ccco2)nc1C(F)(F)F
7,< 1,Cc1[nH]c(-c2n[nH]cc2NC(=O)c2cccc3c2OCC3)nc1C(F)(F)F
8,< 1,Cc1[nH]c(-c2n[nH]cc2NC(=O)CC2CC2)nc1C(F)(F)F
9,< 1,COc1ccc(S(C)(=O)=O)cc1C(=O)Nc1c[nH]nc1-c1nc(C(F)(F)F)c(C)[nH]1
10,< 1,Cc1[nH]c(-c2n[nH]cc2NC(=O)c2cc(CN3CCOCC3)c(C)o2)nc1C(F)(F)F
11,< 1,Cc1[nH]c(-c2n[nH]cc2NC(=O)c2ccc3c(c2)OCC3)nc1C(F)(F)F
12,< 1,COc1cccc(Cl)c1C(=O)Nc1c[nH]nc1-c1nc(C(F)(F)F)c(C)[nH]1
13,< 1,Cc1cc(C(=O)Nc2c[nH]nc2-c2nc(C(F)(F)F)c(C)[nH]2)no1
